According to ChEMBL document CHEMBL1201862, “PubChem BioAssay data set” (2004):
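A five-concentration, 48-hour dose response in 96-well plates underlies each endpoint, interpolated linearly between surrounding concentrations. GI50 = concentration required for 50% inhibition of growth.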 Activity calls are given as the source filed them. Cut-off read from the data, not from the text of the source: active = GI50 up to about 1.1 µM and inactive = higher.

What was measured:
Assay in all cases: NCI tumour cell line growth inhibition, 48 h
[1] = system: SW-620
[2] = system: SF-295
[3] = system: SK-MEL-2
[4] = system: BT-549
[5] = system: SK-MEL-5
[6] = system: A498
[7] = system: EKVX
[8] = system: SN12C
[9] = system: RXF 393
[10] = system: HCT-116
[11] = system: OVCAR-5
[12] = system: HCC 2998
[13] = system: Hs-578T
[14] = system: SF-539
[15] = system: UACC-257
[16] = system: NCI-H23
[17] = system: OVCAR-4
[18] = system: PC-3

SMILES	GI50 [1]	GI50 [2]	GI50 [3]	GI50 [4]	GI50 [5]	GI50 [6]	GI50 [7]	GI50 [8]	GI50 [9]	GI50 [10]	GI50 [11]	GI50 [12]	GI50 [13]	GI50 [14]	GI50 [15]	GI50 [16]	GI50 [17]	GI50 [18]
COc1ccccc1Cc1ccc(C2C=CC3(CC(=O)C=C3C)C(=O)C2)o1 (centres undefined)	18.5 µM (inactive)	22.1 µM (inactive)	14.7 µM (inactive)	20.6 µM (inactive)	15.6 µM (inactive)	20 µM (inactive)	34.8 µM (inactive)	22 µM (inactive)	17.4 µM (inactive)	27.2 µM (inactive)	50.8 µM (inactive)	28.1 µM (inactive)	20.2 µM (inactive)	18.6 µM (inactive)	22.4 µM (inactive)	21 µM (inactive)	31 µM (inactive)	16.1 µM (inactive)
N#CCCN(CCCN(CCCN(C(=O)Nc1ccccc1)c1ccccc1)C(=O)Nc1ccccc1)C(=O)Nc1ccccc1	> 8.75 µM (inactive)	> 8.75 µM (inactive)	> 8.75 µM (inactive)	> 8.75 µM (inactive)	> 8.75 µM (inactive)	> 8.75 µM (inactive)	> 8.75 µM (inactive)	> 8.75 µM (inactive)	> 8.75 µM (inactive)	> 8.75 µM (inactive)	> 8.75 µM (inactive)	> 100 µM (inactive)	73.5 µM (inactive)	> 8.75 µM (inactive)	> 8.75 µM (inactive)		> 100 µM (inactive)	> 8.75 µM (inactive)
O=C(O)c1ccc(Cc2ccccc2C(=O)O)cc1	> 100 µM (inactive)	> 100 µM (inactive)	> 100 µM (inactive)	> 100 µM (inactive)	> 100 µM (inactive)	> 100 µM (inactive)	> 100 µM (inactive)	> 100 µM (inactive)	> 100 µM (inactive)	> 100 µM (inactive)	> 100 µM (inactive)	> 100 µM (inactive)	> 100 µM (inactive)	> 100 µM (inactive)	> 100 µM (inactive)	> 100 µM (inactive)	> 100 µM (inactive)	> 100 µM (inactive)
N=C(N)N/N=C/c1c(Cl)nc2sccn12	18 µM (inactive)	21.4 µM (inactive)	> 10 µM (inactive)	26.9 µM (inactive)	15.8 µM (inactive)	28.2 µM (inactive)	42.9 µM (inactive)	38.5 µM (inactive)	28.2 µM (inactive)	15.3 µM (inactive)	28.8 µM (inactive)	16.9 µM (inactive)	18.2 µM (inactive)	19.8 µM (inactive)	23.4 µM (inactive)	46.6 µM (inactive)	19.2 µM (inactive)	30.4 µM (inactive)
COc1ccc(C(O)/C(=N/N)c2nc3ccc(Cl)cc3nc2O)cc1 (centres undefined)	> 100 µM (inactive)	> 100 µM (inactive)	> 100 µM (inactive)	> 100 µM (inactive)	> 100 µM (inactive)	> 100 µM (inactive)	> 100 µM (inactive)	> 100 µM (inactive)	> 100 µM (inactive)	> 100 µM (inactive)	> 100 µM (inactive)	> 100 µM (inactive)	> 100 µM (inactive)	> 100 µM (inactive)	> 100 µM (inactive)	> 100 µM (inactive)	> 100 µM (inactive)	> 100 µM (inactive)
COP(=O)(OC)c1ccc(NCc2cc(O)ccc2O)cc1	42 µM (inactive)	17.3 µM (inactive)	46.6 µM (inactive)	17.9 µM (inactive)	22.1 µM (inactive)	92.7 µM (inactive)	23.1 µM (inactive)	30.3 µM (inactive)	25.3 µM (inactive)	24.8 µM (inactive)	23.9 µM (inactive)	23 µM (inactive)	24.8 µM (inactive)	21.2 µM (inactive)	22.2 µM (inactive)	34.1 µM (inactive)	27 µM (inactive)	> 60.4 µM (inactive)
CNC(=O)c1ccc(C(=O)NCCCCCN(O)C(=O)CCC(=O)NCCCCCN(O)C(=O)CCC(=O)NCCCCCN(O)C(C)=O)c(O)c1O	39.3 µM (inactive)	42.6 µM (inactive)	95.7 µM (inactive)	56.6 µM (inactive)	33.7 µM (inactive)	> 100 µM (inactive)		94.6 µM (inactive)	32.3 µM (inactive)	32.9 µM (inactive)	> 100 µM (inactive)	> 100 µM (inactive)	> 100 µM (inactive)	29 µM (inactive)	68.5 µM (inactive)	65.9 µM (inactive)	1.07 µM (active)	86.7 µM (inactive)
